{"source": "ChEMBL document CHEMBL3745677", "about": "“Discovery of 6-(4-{[5-Cyclopropyl-3-(2,6-dichlorophenyl)isoxazol-4-yl]methoxy}piperidin-1-yl)-1-methyl-1H-indole-3-carboxylic Acid: A Novel FXR Agonist for the Treatment of Dyslipidemia” (J Med Chem, 2015)", "format_in_all_cases": "functional, Zucker", "key": {"Rattus norvegicus [1]": {"tested_on": "Rattus norvegicus", "assay": "Antidyslipidemic activity in ZDF rat assessed as VLDL level at 0.3 mg/kg for 9 days by FPLC analysis (reference value: 35 mg/dL)"}, "Rattus norvegicus [2]": {"tested_on": "Rattus norvegicus", "assay": "Antidyslipidemic activity in ZDF rat assessed as HDL level at 0.3 mg/kg for 9 days by FPLC analysis (reference value: 48.3 mg/dL)"}, "Rattus norvegicus [3]": {"tested_on": "Rattus norvegicus", "assay": "Antidyslipidemic activity in ZDF rat assessed as LDL/IgHDL level at 0.3 mg/kg for 9 days by FPLC analysis (reference value: 17.8 mg/dL)"}}, "data": [{"smiles": "CN(CCOc1ccc(CC2SC(=O)NC2=O)cc1)c1ccccn1", "note": "(stereo not drawn) [ROSIGLITAZONE]", "values": [{"measurement": "Activity", "setting": "Rattus norvegicus [1]", "value": 26.3, "unit": "mg/dL"}, {"measurement": "Activity", "setting": "Rattus norvegicus [2]", "value": 61.3, "unit": "mg/dL"}, {"measurement": "Activity", "setting": "Rattus norvegicus [3]", "value": 19, "unit": "mg/dL"}]}]}
